In ChEMBL document CHEMBL1201862, “PubChem BioAssay data set” (2004):
Values belong to the molecule of their own block, whether it stands above or below them. Calls of active or inactive are those of the source.

Experiments:
[1] = molecular target: Mitogen-activated protein kinase 10 (Homo sapiens, UniProt P53779); test: Dose response biochemical screening assay for inhibitors of c-Jun N-Terminal Kinase 3 (JNK3). [Related pubchem assays: 746 ]
Prothrombin [2] = molecular target: Prothrombin (Homo sapiens, UniProt P00734); test: Thrombin 1536 HTS Dose Response Confirmation. [Related pubchem assays: 1046 (Thrombin 1536 HTS; hits were confirmed in this assay)]; type: functional
[3] = molecular target: Peroxisome proliferator-activated receptor gamma/Nuclear receptor corepressor 2 (Homo sapiens, UniProt P37231+Q9Y618); test: Counterscreen for NR2E3 inverse agonists: TR-FRET-based biochemical high throughput dose response assay to identify inverse agonists of the interaction between peroxisome proliferator-activated receptor gamma (PPARg) and nuclear receptor co-repressor 2 (NCOR2).; type: functional
[4] = molecular target: Photoreceptor-specific nuclear receptor (Homo sapiens, UniProt Q9Y5X4); test: ligands suppressing NR2E3 nuclear receptor activity – biochemical, TR-FRET, dose response (AID 463256); type: functional
[5] = molecular target: Eukaryotic translation initiation factor 4E (Mus musculus, UniProt P63073); test: blockers of eIF4G binding by eIF4E – biochemical, TR-FRET, dose response (AID 855); type: functional;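 note: potency for disrupting eIF4E binding to eIF4GI seen as loss of FRET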
[6] = molecular target: 26S proteasome non-ATPase regulatory subunit 14 (Homo sapiens, UniProt O00487); test: inhibition of proteasome subunit RPN11 – biochemical, fluorescence polarization, uHTS hits, confirmation (AID 602368); type: functional
[7] = molecular target: 72 kDa type IV collagenase (Homo sapiens, UniProt P08253); test: Dose Response validation of uHTS RPN11 inhibitor hits using a MMP-2 Fluorescence assay.; type: functional
Prothrombin [8] = molecular target: Prothrombin (Bos taurus, UniProt P00735); test: thrombin protease inhibitors – biochemical, fluorescence polarization, uHTS hits, dose response (AID 602369); type: functional
[9] = IC50 of Artemis nuclease activity blockers – biochemical, fluorescence intensity, dose response (AID 720701); type: functional;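 note: Artemis endonuclease enzyme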
[10] = molecular target: T1, Glutathione-S-transferase (Schistosoma japonicum, UniProt Q26513); test: GST-antibody interaction or FRET quenching – biochemical, TR-FRET, artefact control for Vif-APOBEC3G degradation inhibitor project, dose response (AID 1117362); type: functional
T1 sequence (Q26513 whole entry): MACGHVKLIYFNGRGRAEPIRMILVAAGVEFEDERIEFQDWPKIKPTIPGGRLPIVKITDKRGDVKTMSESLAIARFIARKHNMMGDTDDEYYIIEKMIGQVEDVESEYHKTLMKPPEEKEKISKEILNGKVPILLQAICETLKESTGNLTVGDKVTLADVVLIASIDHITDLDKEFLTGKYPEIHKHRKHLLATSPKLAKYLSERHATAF

SUMO-activating enzyme = SUMO-activating enzyme (Homo sapiens, UniProt Q9UBT2); test: blockers of UBC9-mediated SUMO conjugation – biochemical, AlphaScreen, SUMOylation inhibitor project, confirmation (AID 2018); type: functional
[11] = Trypanosoma cruzi growth suppression in host cells – NIH3T3 host cells, beta-gal luminescence, confirmation (AID 2044); type: functional, cell-based;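 note: intracellular parasites grown in NIH/3T3 mouse fibroblasts as host cells; luminescent beta-galactosidase reporter signal from transgenic T. cruzi replicating inside host cells; inhibitors lower the luminescence signal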
[12] = NIH3T3 cell viability loss – ATP luminescence, mouse fibroblasts, counter-screen, dose response (AID 2010); type: functional, cell-based;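 note: cells exposed to compound for about 90 hours before reading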
[13] = molecular target: Heat shock protein HSP 90-alpha (Homo sapiens, UniProt P07900); type: functional, organism-based
Albumin = Albumin (Bos taurus, UniProt P02769); test: Counterscreen for inhibitors of T-cell receptor (TCR)-CD3 interaction: Fluorescence-based biochemical high throughput dose response assay to identify inhibitors of T-cell receptor (TCR)-CD3 interaction using a TAMRA-labeled BSA probe.; type: functional
[14] = potency of ADAM10 substrate cleavage blockers – biochemical, QFRET, dose response (AID 743254);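 note: ADAM10 enzyme with the DM2 quenched FRET peptide as substrate; EDANS fluorescence gain as the protease cuts the substrate; inhibitor potency against ADAM10 proteolytic activity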
[15] = molecular target: Disintegrin and metalloproteinase domain-containing protein 17 (Homo sapiens, UniProt P78536); test: inhibition of ADAM17 substrate cleavage – biochemical, quenched FRET substrate, counter-screen for ADAM10 exosite inhibitor project, dose response (AID 743253)
[16] = molecular target: Sphingosine 1-phosphate receptor 2 (Homo sapiens, UniProt O95136); test: Dose Response Cell Based Assay for Antagonists of the S1P2 Receptor. [Related pubchem assays: 856, 736 ]; type: functional
[17] = molecular target: G-protein coupled receptor 183 (Homo sapiens, UniProt P32249); test: SAR confirmation of small molecule antagonists of the EBI2 receptor via a luminescent beta-arrestin assa.; type: functional
Sequence of G-protein coupled receptor 183 (P32249 whole entry): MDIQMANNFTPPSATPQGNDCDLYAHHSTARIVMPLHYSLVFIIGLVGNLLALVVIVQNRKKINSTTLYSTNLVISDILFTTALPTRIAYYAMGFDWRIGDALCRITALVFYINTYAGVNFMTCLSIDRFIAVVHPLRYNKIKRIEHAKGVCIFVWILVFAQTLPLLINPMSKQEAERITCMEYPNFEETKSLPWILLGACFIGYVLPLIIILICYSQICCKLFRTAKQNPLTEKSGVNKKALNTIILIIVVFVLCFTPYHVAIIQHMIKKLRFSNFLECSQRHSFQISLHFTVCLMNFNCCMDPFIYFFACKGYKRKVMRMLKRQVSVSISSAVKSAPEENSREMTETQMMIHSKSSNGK

Sequence of Mitogen-activated protein kinase 10 (P53779 whole entry): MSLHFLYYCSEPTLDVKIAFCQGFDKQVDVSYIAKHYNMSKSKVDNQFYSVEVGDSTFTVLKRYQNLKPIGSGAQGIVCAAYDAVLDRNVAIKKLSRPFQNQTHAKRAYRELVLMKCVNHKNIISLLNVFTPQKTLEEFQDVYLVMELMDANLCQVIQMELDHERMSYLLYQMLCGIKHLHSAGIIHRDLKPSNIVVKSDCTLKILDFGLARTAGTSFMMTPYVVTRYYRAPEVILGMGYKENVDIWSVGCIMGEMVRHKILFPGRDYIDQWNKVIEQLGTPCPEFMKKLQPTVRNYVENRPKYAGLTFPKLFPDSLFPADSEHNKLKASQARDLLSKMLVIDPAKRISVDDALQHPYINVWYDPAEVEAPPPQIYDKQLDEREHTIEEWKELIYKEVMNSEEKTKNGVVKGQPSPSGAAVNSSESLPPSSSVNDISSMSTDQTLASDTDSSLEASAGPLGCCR
Sequence of Albumin (P02769 whole entry): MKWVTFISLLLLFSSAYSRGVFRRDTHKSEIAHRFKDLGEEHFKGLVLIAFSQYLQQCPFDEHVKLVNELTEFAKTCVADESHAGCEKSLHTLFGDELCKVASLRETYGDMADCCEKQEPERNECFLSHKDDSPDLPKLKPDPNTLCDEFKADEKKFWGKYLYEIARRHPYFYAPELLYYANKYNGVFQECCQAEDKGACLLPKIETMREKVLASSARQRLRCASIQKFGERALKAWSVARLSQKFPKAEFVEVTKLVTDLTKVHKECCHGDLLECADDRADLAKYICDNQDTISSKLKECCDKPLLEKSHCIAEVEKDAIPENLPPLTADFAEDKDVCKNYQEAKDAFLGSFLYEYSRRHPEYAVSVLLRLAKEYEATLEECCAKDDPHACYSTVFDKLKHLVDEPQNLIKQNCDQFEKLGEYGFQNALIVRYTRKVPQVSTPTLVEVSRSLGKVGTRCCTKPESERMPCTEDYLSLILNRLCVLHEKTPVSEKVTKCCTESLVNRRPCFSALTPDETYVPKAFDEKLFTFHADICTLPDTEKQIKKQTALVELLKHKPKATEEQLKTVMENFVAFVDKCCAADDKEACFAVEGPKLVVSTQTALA
Sequence of Disintegrin and metalloproteinase domain-containing protein 17 (P78536 whole entry, the tested form may be a part): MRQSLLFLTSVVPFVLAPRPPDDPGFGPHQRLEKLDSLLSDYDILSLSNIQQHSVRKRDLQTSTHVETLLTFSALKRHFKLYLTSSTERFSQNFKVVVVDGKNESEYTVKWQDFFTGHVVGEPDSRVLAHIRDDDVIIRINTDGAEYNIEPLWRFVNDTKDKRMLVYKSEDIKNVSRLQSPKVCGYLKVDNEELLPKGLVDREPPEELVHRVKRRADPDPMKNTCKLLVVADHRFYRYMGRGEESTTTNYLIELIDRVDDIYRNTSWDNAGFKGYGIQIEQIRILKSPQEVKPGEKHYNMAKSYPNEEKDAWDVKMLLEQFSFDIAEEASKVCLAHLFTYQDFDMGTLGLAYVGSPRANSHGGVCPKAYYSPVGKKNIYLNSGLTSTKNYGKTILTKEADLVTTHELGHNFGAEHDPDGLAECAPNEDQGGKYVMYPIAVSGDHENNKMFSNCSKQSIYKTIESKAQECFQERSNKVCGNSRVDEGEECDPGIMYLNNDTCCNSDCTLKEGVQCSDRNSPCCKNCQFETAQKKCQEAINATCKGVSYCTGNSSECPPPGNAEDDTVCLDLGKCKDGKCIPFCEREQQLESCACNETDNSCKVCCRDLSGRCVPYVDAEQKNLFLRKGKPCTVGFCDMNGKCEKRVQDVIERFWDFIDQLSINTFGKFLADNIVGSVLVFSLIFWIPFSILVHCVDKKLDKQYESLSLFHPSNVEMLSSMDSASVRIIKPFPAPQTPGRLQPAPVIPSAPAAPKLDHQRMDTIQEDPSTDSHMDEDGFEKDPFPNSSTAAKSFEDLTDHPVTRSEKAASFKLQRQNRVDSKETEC
Sequence of Photoreceptor-specific nuclear receptor (Q9Y5X4 whole entry): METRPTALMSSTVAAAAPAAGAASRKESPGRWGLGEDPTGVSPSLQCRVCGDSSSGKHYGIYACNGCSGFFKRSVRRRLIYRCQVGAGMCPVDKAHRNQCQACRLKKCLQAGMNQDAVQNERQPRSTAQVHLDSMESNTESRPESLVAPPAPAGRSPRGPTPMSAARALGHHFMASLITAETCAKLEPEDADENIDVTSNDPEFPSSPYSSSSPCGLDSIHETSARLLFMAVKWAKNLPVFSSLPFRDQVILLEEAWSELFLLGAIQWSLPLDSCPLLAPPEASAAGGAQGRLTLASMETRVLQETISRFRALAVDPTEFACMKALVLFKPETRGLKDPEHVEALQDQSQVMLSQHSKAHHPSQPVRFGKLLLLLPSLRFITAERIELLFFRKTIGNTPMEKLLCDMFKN
Sequence of Eukaryotic translation initiation factor 4E (P63073 whole entry): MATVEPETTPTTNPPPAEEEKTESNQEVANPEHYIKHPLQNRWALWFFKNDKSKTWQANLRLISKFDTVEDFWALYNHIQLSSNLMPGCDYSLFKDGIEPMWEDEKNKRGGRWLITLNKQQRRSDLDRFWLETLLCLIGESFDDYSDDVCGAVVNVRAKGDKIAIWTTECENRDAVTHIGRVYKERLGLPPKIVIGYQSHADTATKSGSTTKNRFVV
Sequence of 72 kDa type IV collagenase (P08253 whole entry): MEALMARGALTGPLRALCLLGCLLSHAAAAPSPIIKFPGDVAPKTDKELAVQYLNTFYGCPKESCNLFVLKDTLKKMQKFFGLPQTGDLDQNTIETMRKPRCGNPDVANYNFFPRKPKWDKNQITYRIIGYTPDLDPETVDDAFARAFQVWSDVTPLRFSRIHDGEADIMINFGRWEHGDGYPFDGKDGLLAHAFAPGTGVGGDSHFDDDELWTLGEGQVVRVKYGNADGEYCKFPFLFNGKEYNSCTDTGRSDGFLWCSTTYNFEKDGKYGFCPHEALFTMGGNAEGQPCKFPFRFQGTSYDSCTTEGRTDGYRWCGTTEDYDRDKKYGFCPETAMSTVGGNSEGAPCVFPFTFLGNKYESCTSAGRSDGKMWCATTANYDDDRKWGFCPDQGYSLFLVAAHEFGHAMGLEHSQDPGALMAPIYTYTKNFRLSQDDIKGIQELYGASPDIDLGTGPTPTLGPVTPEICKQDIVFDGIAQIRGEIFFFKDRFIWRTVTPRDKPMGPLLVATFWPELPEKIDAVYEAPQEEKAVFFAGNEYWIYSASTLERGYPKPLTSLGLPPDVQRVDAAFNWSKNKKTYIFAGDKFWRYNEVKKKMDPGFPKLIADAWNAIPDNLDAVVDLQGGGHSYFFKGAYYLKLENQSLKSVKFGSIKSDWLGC
Sequence of 26S proteasome non-ATPase regulatory subunit 14 (O00487 whole entry): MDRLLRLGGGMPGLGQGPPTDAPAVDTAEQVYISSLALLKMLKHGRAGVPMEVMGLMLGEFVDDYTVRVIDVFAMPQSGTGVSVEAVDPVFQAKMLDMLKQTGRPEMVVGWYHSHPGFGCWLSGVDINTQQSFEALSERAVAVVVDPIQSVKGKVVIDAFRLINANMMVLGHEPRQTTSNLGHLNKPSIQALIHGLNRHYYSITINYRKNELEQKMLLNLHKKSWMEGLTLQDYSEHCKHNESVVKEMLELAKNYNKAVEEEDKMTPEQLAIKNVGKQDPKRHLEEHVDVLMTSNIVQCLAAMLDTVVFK
Sequence of Sphingosine 1-phosphate receptor 2 (O95136 whole entry): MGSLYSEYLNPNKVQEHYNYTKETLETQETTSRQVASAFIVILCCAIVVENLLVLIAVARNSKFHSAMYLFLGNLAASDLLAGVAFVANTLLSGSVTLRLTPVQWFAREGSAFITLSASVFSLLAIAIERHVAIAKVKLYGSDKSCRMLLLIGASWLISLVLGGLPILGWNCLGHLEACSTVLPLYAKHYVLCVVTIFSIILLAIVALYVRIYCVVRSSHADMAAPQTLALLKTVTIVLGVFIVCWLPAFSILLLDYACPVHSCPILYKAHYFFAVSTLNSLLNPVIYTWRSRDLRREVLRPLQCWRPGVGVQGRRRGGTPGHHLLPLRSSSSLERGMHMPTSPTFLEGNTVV

SMILES: N#Cc1c(/N=C/c2ccco2)sc2c1CCC2
IC50 (Prothrombin [2]): > 50 µM (not active)

SMILES: CCCOc1ccc(N)cc1N
IC50 [9]: > 20 µM (inactive)
IC50 [10]: 15.8 µM (active)

SMILES: CC(C)=CCCC(C)CN1CCC(n2nccc2NC(=O)c2ccc3c(c2)OCO3)CC1 (stereo not given)
EC50 [11]: < 0.1 µM (active)
EC50 [12]: 9.11 µM (active)
EC50 (cells): > 10 µM (not active)

SMILES: CCOC(=O)C1=C(NC(=O)Nc2ccc(Cl)c(Cl)c2)Nc2ccccc2N=C1CC
EC50 [11]: 2.13 µM (active)
EC50 [12]: > 60 µM (not active)
AC50 [13]: 2.11 µM (active)
IC50 (Albumin): > 94.1 µM (inactive)

SMILES: Nc1nc(-c2ccco2)nn1C(=O)c1ccccc1Cl
IC50 (Prothrombin [2]): 14 µM (active)

SMILES: CN(C)/C=N\C(=O)c1sc2cc(C(F)(F)F)cnc2c1-c1cccs1
IC50 [16]: > 30 µM (not active)

SMILES: N#Cc1ccccc1S(=O)(=O)N1CCN(C(=O)/C=C/c2ccc(F)cc2)CC1
IC50 [17]: 0.0482 µM (active)

Now from value to molecule:

IC50 [1]: > 93.1 µM (not active)
SMILES: COCc1cc(C)nc(SCC(=O)Nc2cc3c(cc2C#N)OCO3)c1C#N

IC50 [3]: 0.737 µM (active)
IC50 [4]: 0.774 µM (active)
IC50 [5]: > 64 µM (inactive)
IC50 [6]: 23.7 µM (active)
IC50 [7]: > 100 µM (inactive)
IC50 (Prothrombin [8]): 51.4 µM (active)
SMILES: C=CCn1c(SCC(=O)Nc2ccc(-c3nc4ccc(C)cc4s3)cc2)nnc1-c1ccccc1

IC50 (SUMO-activating enzyme): 18.3 µM (active)
IC50 [9]: > 20 µM (inactive)
SMILES: O=C(Nc1cccc2nsnc12)c1ccc(-c2cccc(Cl)c2)o1

IC50 [1]: 26.8 µM (not active)
SMILES: COC(=O)c1sccc1NC(=O)c1ccc(OC)cc1

IC50 [14]: > 69.5 µM (inactive)
IC50 [15]: > 69.5 µM (inactive)
SMILES: COC(=O)[C@]12C[C@H](CC(=O)NCCC(C)C)C(=O)N(Cc3cccc4ccccc34)C1=C[C@H](C(C)C)O[C@@H]2C1CC1
